From paper PMC12051030, “Identification of inhibitors of the Salmonella FraB deglycase, a drug target” (FEBS Open Bio, 2025)

Legend:
[1] = molecular target: His6‐FraB (Salmonella FraB deglycase) (Salmonella enterica subsp. enterica serovar Typhimurium, UniProt Q8ZLD0); experiment: FraB-G6PD coupled assay, Michaelis–Menten analysis for K I and mode of inhibition; format: biochemical
Procedure: To determine the K I of each inhibitor, 29 μL of master mix was added to two rows of a 384‐well Greiner plate, using a single‐channel pipette, and incubated at 20 °C for 20 min. A 12‐channel pipette was then used to transfer and mix 1 μL of varying [6‐P‐F‐Asp] to all 48 wells. The final reaction (30 μL) consisted of 25 mM HEPES pH 8.0 at 20 °C, 5 mM MgCl2, 0.1 mM EGTA, 0.5 mM NAD^+, 1 mU G6PD, 100 nM His6‐FraB, varying (6‐P‐F‐Asp) (between 8 and 12 concentrations), and varying [inhibitor] (between three and five concentrations) in 10% (v/v) DMSO. NADH fluorescence was monitored every 10 s for 10 min total on a SPARK® multi‐mode multiplate reader (Tecan), as described above, and plotted against time. Slopes of the linear range of each curve were converted to initial velocities, as described above, that were then plotted against [6‐P‐F‐Asp]. A hyperbolic curve was then fitted to the data to obtain the k cat and K m values according to the formula: v o = (V max × [S])/(K m + [S]).
To determine the correlation between the observed and expected initial velocities (Fig. S5A), these values were exported from Kaleidagraph, plotted against one another, and a curve was fit using the formula: y = mx + b. The differences between observed and expected initial velocities (residuals) were then depicted as box‐and‐whisker plots (Fig. S5B). Lineweaver‐Burk plots were generated by graphing 1/v o versus 1/[S] and curves were fit to the data with Kaleidagraph using the formula: 1/v o = (Km/V max).(1/[S]) + (1/V max). The k cat and K m parameters were then converted into α′ values by dividing the k cat of the control (no inhibitor) by either itself (α′= 1) or the k cat of test samples with variable [inhibitor]. Those α′ values were plotted against [inhibitor] and K I values were determined from the equation α = 1 + [I]/K I.
The initial velocities used to generate the Michaelis–Menten plots were also employed to obtain the IC50 vs [S]/K m plots. For a given [S], initial velocities were converted into relative activities and plotted versus [inhibitor]. […] The IC50 values determined from the IC50 vs [S]/K m plots were then used to plot 1/IC50 versus v o/V max. A curve was fit to the data using the formula: y = mx + b. The Y‐intercept of the 1/IC50 versus v o/V max plot is equal to 1/K IC, and the slope, for mixed inhibitors, is equal to 1/K IU – 1/K IC. […] Data analyses were performed as described above (see Tables S1–S7 for curve‐fit errors and goodness‐of‐fit values).

Salmonella tolC mutant = experiment: Growth assay, Salmonella tolC mutant in wild‐type or fra island mutant background; format: cell-based; details: early finding; could not be replicated after multiple attempts with stocks from different suppliers (data not shown)
Excerpt: We sought to examine the possibility that some of the hits in the biochemical HTS were not picked up in the cell‐based assays due to efficient efflux mechanisms in Salmonella. Because TolC is an outer membrane protein channel that is essential for the ability of seven of the 10 inner membrane drug‐efflux transporters to expel structurally diverse molecules, we generated a Salmonella tolC mutant and tested the 121 compounds that we purchased (Sabag‐Daigle, A. & Ahmer, B. M. M., unpublished results). The tests were conducted in parallel using the tolC mutant in a wild‐type or fra island mutant background; the latter lacks the entire fra locus and is incapable of catabolizing F‐Asn and forming 6‐P‐F‐Asp. Thus, any inhibitor specific for FraB (and which was being effluxed in the wild‐type) will inhibit the tolC mutant in a wild‐type but not the fra island mutant background. A caveat is that efflux of compounds may also be achieved via TolC‐independent drug‐efflux pumps.

Sequence of His6‐FraB (Salmonella FraB deglycase) (Q8ZLD0 entry or part of it): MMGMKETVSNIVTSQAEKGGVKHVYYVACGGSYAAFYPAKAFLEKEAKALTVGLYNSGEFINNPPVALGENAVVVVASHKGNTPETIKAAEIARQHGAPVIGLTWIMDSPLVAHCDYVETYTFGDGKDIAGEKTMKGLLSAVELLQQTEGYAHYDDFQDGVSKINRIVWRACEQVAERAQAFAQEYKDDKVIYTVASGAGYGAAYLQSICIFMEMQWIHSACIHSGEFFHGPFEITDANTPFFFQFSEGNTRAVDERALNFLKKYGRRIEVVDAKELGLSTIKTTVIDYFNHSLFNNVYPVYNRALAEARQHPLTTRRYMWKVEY

In the case of `Fc1ccc(-c2nn3c(-c4ccccn4)nnc3s2)cc1` [3469:N17, 6‐(4‐fluorophenyl)‐3‐pyridin‐2‐yl‐[1,2,4]triazolo[3,4‐b][1,3,4]thiadiazole], the “change of IC50 values with increasing [S]/K m” value ([1]; 'this trend' = IC50 does not vary with [S]/K m, change evident only from 0.2 to 1.6× [S]/K m) is reported as “modest decrease”, the “slope in plots of 1/IC50 vs. v o/V max” value ([1]; Fig. S12) is reported as “weakly positive” and the IC50 ([1]; IC50 (IC50 versus [S]/Km plots), Trial 1, 6-P-F-Asp 7.38 µM, S/Km 0.175714, unit from Fig. S11 axis) is reported as 47.9 µM. For the same compound, the IC50 ([1]; IC50 (IC50 versus [S]/Km plots), Trial 1, 6-P-F-Asp 15.7 µM, S/Km 0.37381, unit from Fig. S11 axis) was 45.4 µM, the IC50 ([1]; IC50 (IC50 versus [S]/Km plots), Trial 1, 6-P-F-Asp 31.3 µM, S/Km 0.745238, unit from Fig. S11 axis) was 40.9 µM and the IC50 ([1]; IC50 (IC50 versus [S]/Km plots), Trial 1, 6-P-F-Asp 62.5 µM, S/Km 1.488095, unit from Fig. S11 axis) was 34.9 µM. For the same compound, the IC50 ([1]; IC50 (IC50 versus [S]/Km plots), Trial 1, 6-P-F-Asp 125 µM, S/Km 2.97619, unit from Fig. S11 axis) was 32.7 µM, the IC50 ([1]; IC50 (IC50 versus [S]/Km plots), Trial 1, 6-P-F-Asp 250 µM, S/Km 5.952381, unit from Fig. S11 axis) was 34.1 µM and the IC50 ([1]; IC50 (IC50 versus [S]/Km plots), Trial 1, 6-P-F-Asp 500 µM, S/Km 11.90476, unit from Fig. S11 axis) was 30.1 µM. The IC50 ([1]; IC50 (IC50 versus [S]/Km plots), Trial 1, 6-P-F-Asp 750 µM, S/Km 17.85714, unit from Fig. S11 axis) was 33.4 µM, the IC50 ([1]; IC50 (IC50 versus [S]/Km plots), Trial 1, 6-P-F-Asp 1000 µM, S/Km 23.80952, unit from Fig. S11 axis) was 32.7 µM and the IC50 ([1]; IC50 (IC50 versus [S]/Km plots), Trial 1, 6-P-F-Asp 2000 µM, S/Km 47.61905, unit from Fig. S11 axis) was 32.5 µM. It also gave an IC50 ([1]; IC50 (IC50 versus [S]/Km plots), Trial 1, 6-P-F-Asp 3000 µM, S/Km 71.42857, unit from Fig. S11 axis) of 39.3 µM, an IC50 ([1]; IC50 (IC50 versus [S]/Km plots), Trial 2, 6-P-F-Asp 7.38 µM, S/Km 0.175714, unit from Fig. S11 axis) of 36.6 µM and an IC50 ([1]; IC50 (IC50 versus [S]/Km plots), Trial 2, 6-P-F-Asp 15.7 µM, S/Km 0.37381, unit from Fig. S11 axis) of 44.8 µM. For the same compound, the IC50 ([1]; IC50 (IC50 versus [S]/Km plots), Trial 2, 6-P-F-Asp 31.3 µM, S/Km 0.745238, unit from Fig. S11 axis) was 48.2 µM, the IC50 ([1]; IC50 (IC50 versus [S]/Km plots), Trial 2, 6-P-F-Asp 62.5 µM, S/Km 1.488095, unit from Fig. S11 axis) was 48.5 µM and the IC50 ([1]; IC50 (IC50 versus [S]/Km plots), Trial 2, 6-P-F-Asp 125 µM, S/Km 2.97619, unit from Fig. S11 axis) was 37.7 µM. The IC50 ([1]; IC50 (IC50 versus [S]/Km plots), Trial 2, 6-P-F-Asp 250 µM, S/Km 5.952381, unit from Fig. S11 axis) was 34 µM, the IC50 ([1]; IC50 (IC50 versus [S]/Km plots), Trial 2, 6-P-F-Asp 500 µM, S/Km 11.90476, unit from Fig. S11 axis) was 32.9 µM and the IC50 ([1]; IC50 (IC50 versus [S]/Km plots), Trial 2, 6-P-F-Asp 750 µM, S/Km 17.85714, unit from Fig. S11 axis) was 35.9 µM. For the same compound, the IC50 ([1]; IC50 (IC50 versus [S]/Km plots), Trial 2, 6-P-F-Asp 1000 µM, S/Km 23.80952, unit from Fig. S11 axis) was 34.9 µM, the IC50 ([1]; IC50 (IC50 versus [S]/Km plots), Trial 2, 6-P-F-Asp 2000 µM, S/Km 47.61905, unit from Fig. S11 axis) was 39.2 µM and the IC50 ([1]; IC50 (IC50 versus [S]/Km plots), Trial 2, 6-P-F-Asp 3000 µM, S/Km 71.42857, unit from Fig. S11 axis) was 42.2 µM. For the same compound, the IC50 ([1]; IC50, mean and standard deviation of all IC50 values in IC50 vs [S]/Km plot, trial shown in Fig. S11 panels M-X) was 40 ± 6 µM, the Ki ([1]; K I, from Michaelis–Menten analysis of FraB at different inhibitor concentrations, average and standard error from two measurements) was 28.5 ± 3.5 µM and the Ki ([1]; KI from α′ vs [I] plot, trial shown in Fig. S11 panels M-X) was 25 µM. The Ki ([1]; KI from α′ vs [I] plot, trial shown in Fig. S11 panels Y-AJ) was 32 µM, the “K IU/K IC ratio” value ([1]; average (±SE), from 1/IC50 versus v o/V max plots) was 0.7 ± 0.1 and the mode of inhibition ([1]; kinetic analyses (Lineweaver‐Burk, α′ vs [I], IC50 vs [S]/K m, 1/IC50 vs v o/V max)) was “mixed‐type uncompetitive”. For the same compound, the “inhibition of growth of Salmonella tolC, fra‐dependent” value (Salmonella tolC mutant) was “initially shown to inhibit the growth of Salmonella tolC in a fra‐dependent manner”.
